“Also recorded” adds a separate entry of the source.
How the values were obtained:
[1] = in vivo; cited from earlier work
[2] = rat; cited from earlier work
[3] = Effects on arterial wall / atherosclerotic plaque; format: in vivo
[4] = Serum lipoproteins; format: in vivo
[5] = Luminal narrowing and myocardial blood flow; format: in vivo
[6] = system: fatty acyl-CoA: cholesterol acyl transferase (ACAT); assay: Inhibition of arterial cholesterol-esterifying enzyme; format: biochemical; details: in words
[7] = cited from earlier work
[8] = mainly as glucose formed by enzymatic hydrolysis; cited from earlier work
[9] = in words; cited from earlier work

N[C@H](Cc1cc(I)c(Oc2cc(I)c(O)c(I)c2)c(I)c1)C(=O)O [D-thyroxine]
lowering blood lipids [1]: effective to varying degrees in lowering blood lipids

COc1ccc2c(c1)c(CC(=O)O)c(C)n2C(=O)c1ccc(Cl)cc1 [Indomethacin]
bioavailability with β-cyclodextrin [2]: enhance the bioavailability

CCOC(=O)C(C)(C)Oc1ccc(Cl)cc1 [clofibrate]
lowering blood lipids [1]: effective to varying degrees in lowering blood lipids

O=C(O)c1cccnc1 [nicotinic acid]
lowering blood lipids [1]: effective to varying degrees in lowering blood lipids

CCCCCCCCCCCCCCCCNc1ccc(C(=O)[O-])cc1.[Na+] [p-hexadecylamino benzoic acid sodium salt]
area and thickness of the plaque (incidence and severity of plaque formation) ([3]; arterial wall): decrease of both the area and the thickness of the plaque
deposition of collagen and elastin ([3]; arterial wall): reduction of deposition of connective-tissue collagen and elastic-fiber elastin
formation of the extracellular matrix and trapping of very low-density lipoproteins ([3]; arterial wall): lowering of the formation of the extracellular matrix and its trapping of very low-density lipoproteins
immobilization of cholesterol in the form of ester ([3]; arterial wall): decreased immobilization of cholesterol in the form of ester
smooth-muscle cell proliferation ([3]; arterial wall): decreased smooth-muscle cell proliferation
calcium deposition ([3]; arterial wall / plaque, sodium salt): reduced calcium deposition; also recorded: minimizes the calcium deposition in the plaque
progression of atherosclerosis ([3]; in words): inhibit the progression of atherosclerosis
high-density lipoprotein in the serum, increase ([4]; in vivo): 2 fold
HDL concentrations ([4]; in words): elevates HDL concentrations
very low-density lipoproteins ([4]; in words): antiatherogenic decrease in the atherogenic very low-density lipoproteins
reduction in the luminal narrowing ([5]; 4 major coronary arteries): 2 fold
luminal narrowing in major peripheral arteries ([5]; major peripheral arteries): Reductions in luminal narrowing are seen in major peripheral arteries as well
myocardial blood flow ([5]; non-stressed and stressed heart): increases in myocardial blood flow in the non-stressed and the stressed heart
inhibition of arterial cholesterol-esterifying enzyme (ACAT) [6]: inhibited by this compound

O=C(O)c1ccccc1O [salicylic acid]
bioavailability in man as β-cyclodextrin inclusion compound [7]: increased bioavailability

CCCCCCCCCCCCCCCCCC(=O)O [stearic acid]
bioavailability with β-cyclodextrin [2]: enhance the bioavailability

OC[C@H]1O[C@@H]2O[C@H]3[C@H](O)[C@@H](O)[C@@H](O[C@H]4[C@H](O)[C@@H](O)[C@@H](O[C@H]5[C@H](O)[C@@H](O)[C@@H](O[C@H]6[C@H](O)[C@@H](O)[C@@H](O[C@H]7[C@H](O)[C@@H](O)[C@@H](O[C@H]8[C@H](O)[C@@H](O)[C@@H](O[C@H]1[C@H](O)[C@H]2O)O[C@@H]8CO)O[C@@H]7CO)O[C@@H]6CO)O[C@@H]5CO)O[C@@H]4CO)O[C@@H]3CO [β-cyclodextrin]
absorbed by man upon oral administration [8]: less than 0.01%
toxicity [9]: lack of toxicity

Source: patent publication US4407795A, “Inclusion compound of p-hexadecylamino benzoic acid in cyclodextrin and method of use” (American Cyanamid Company, priority 1981, dated 1983)
